The values that follow come from patent publication EP4806911A1, “TRIPLE AGONIST COMPOUND” (Chengdu Aoda Biotechnology Co., Ltd, priority 2023, dated 2025).

Structures are written as SMILES.

What all share (format): cell-based
The target of one experiment is T1, GCG-R (Homo sapiens, UniProt P47871).
T1 construct: expressed in transfected cells; host or cells: CHO-K1
Briefly: GCG activity test (cAMP, chemiluminescence). To be noted: CHO-K1 cell line stably expressing GCG-R; relative luminescence units; read-out: GCG [EC50(pmol)]. The protocol:
(§1) Upon stimulation by a specific agonist, GCG-R activates the intracellular adenylate cyclase signaling pathway, resulting in an increase in cAMP levels and ultimately leading to […]. A cell line stably transfected with GCG-R was stimulated with test compounds, thereby rapidly increasing intracellular cAMP levels. The relative luminescence units (RLU) of cells stimulated at various concentrations were measured by a chemiluminescence method, and the EC50 value of the agonist was calculated accordingly. This activity assay method is currently a commonly used method for evaluating GCG receptor agonist activity both domestically and internationally. A CHO-K1 cell line stably expressing GCG-R was used. The stable cells were stimulated with agonists at different concentrations, and the relative luminescence units after stimulation at each concentration were measured to calculate the EC50 value of the agonist.

For a further experiment, the target named is T2, GIPR (Homo sapiens, UniProt P48546).
T2 construct: expressed in transfected cells; host or cells: CHO-K1
T2 sequence (P48546 22-466): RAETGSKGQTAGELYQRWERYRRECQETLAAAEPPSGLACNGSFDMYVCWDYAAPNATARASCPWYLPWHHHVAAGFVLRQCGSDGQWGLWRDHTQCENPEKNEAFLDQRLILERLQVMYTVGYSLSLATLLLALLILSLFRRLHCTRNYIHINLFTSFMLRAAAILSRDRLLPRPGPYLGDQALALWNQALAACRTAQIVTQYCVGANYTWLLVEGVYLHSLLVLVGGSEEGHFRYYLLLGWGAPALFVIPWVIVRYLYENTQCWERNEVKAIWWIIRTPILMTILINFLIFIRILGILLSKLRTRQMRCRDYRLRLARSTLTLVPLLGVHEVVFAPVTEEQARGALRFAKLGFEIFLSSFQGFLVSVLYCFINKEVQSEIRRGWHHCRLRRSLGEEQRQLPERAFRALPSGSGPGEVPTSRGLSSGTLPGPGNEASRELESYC
Kind of experiment: GIP activity test (cAMP, chemiluminescence). To be noted: CHO-K1 cell line stably expressing GIPR; relative luminescence units; read-out: GIP [EC50(pmol)]. On the procedure:
as §1, with “GIPR” for “GCG-R”, “GIP” for “GCG”

A further experiment deals with T3, GLP-1R (Homo sapiens, UniProt P43220).
T3 construct: expressed in transfected cells; host or cells: CHO-K1
Briefly: GLP-1 activity test (cAMP, chemiluminescence). To be noted: CHO-K1 cell line stably expressing GLP-1R; relative luminescence units; read-out: GLP-1 [EC50(pmol)]. The protocol: as §1, with “GLP-1R” for “GCG-R”, “test” for “assay”, “GLP-1” for “GCG”

T3 sequence (P43220 24-463, species assumed): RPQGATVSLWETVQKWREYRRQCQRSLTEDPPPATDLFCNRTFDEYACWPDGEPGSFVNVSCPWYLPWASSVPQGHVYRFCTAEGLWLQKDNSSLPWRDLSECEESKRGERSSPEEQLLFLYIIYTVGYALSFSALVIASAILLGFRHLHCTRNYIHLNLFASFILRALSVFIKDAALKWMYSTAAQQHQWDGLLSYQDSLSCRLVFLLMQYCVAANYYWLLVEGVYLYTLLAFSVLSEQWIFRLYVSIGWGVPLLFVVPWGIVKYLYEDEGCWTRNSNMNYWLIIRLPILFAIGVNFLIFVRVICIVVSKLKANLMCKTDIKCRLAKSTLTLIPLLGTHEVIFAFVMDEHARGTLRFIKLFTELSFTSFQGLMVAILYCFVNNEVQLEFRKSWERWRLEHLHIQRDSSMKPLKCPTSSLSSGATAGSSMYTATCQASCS
T1 sequence (P47871 26-477, species assumed): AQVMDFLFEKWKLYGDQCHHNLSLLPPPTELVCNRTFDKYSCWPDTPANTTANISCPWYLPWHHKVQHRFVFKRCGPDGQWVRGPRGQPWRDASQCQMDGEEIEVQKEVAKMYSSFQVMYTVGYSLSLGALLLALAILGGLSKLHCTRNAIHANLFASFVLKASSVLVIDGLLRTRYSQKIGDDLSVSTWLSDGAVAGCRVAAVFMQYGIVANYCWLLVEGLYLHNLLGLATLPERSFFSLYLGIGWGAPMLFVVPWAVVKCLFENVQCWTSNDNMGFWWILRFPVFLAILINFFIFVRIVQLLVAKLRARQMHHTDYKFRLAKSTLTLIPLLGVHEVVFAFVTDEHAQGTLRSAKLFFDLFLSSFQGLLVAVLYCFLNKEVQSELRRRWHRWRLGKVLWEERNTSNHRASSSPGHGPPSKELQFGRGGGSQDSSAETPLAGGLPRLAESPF

As to `CC[C@H](C)[C@H](NC(=O)[C@H](Cc1ccccc1)NC(=O)[C@H](C)NC(=O)C(C)(C)NC(=O)[C@H](CCC(N)=O)NC(=O)[C@H](C)NC(=O)[C@H](CCCCNC(=O)COCCOCCNC(=O)CC[C@H](NC(=O)CCCCCCCCCCCCCCCCCCC(=O)O)C(=O)O)NC(=O)[C@H](CCCCN)NC(=O)[C@H](CC(=O)O)NC(=O)[C@H](CC(C)C)NC(=O)C(C)(CC(C)C)NC(=O)[C@@H](NC(=O)[C@H](CO)NC(=O)[C@H](Cc1ccc(O)cc1)NC(=O)[C@H](CC(=O)O)NC(=O)[C@H](CO)NC(=O)[C@@H](NC(=O)C(C)(Cc1ccccc1)NC(=O)[C@@H](NC(=O)CNC(=O)[C@H](CCC(N)=O)NC(=O)C(C)(C)NC(=O)[C@@H](N)Cc1ccc(O)cc1)[C@@H](C)O)[C@@H](C)O)[C@@H](C)CC)C(=O)N[C@@H](CCC(=O)O)C(=O)N[C@@H](Cc1ccc(O)cc1)C(=O)N[C@@H](CC(C)C)C(=O)N[C@@H](CC(C)C)C(=O)N[C@@H](CCC(=O)O)C(=O)NCC(=O)NCC(=O)N1CCC[C@H]1C(=O)N[C@@H](CO)C(=O)N[C@@H](CO)C(=O)NCC(=O)N[C@@H](C)C(=O)N1CCC[C@H]1C(=O)N1CCC[C@H]1C(=O)N1CCC[C@H]1C(=O)N[C@@H](CO)C(N)=O` (stereo partly drawn) [Compound 1], the EC50 (as a rule, the concentration that produces a half-maximal response) on GCG-R is 0.171 nM; on GIPR, 0.0226 nM; at GLP-1R, 0.0502 nM.

Consider `CC[C@H](C)[C@H](NC(=O)[C@H](Cc1ccccc1)NC(=O)[C@H](C)NC(=O)C(C)(C)NC(=O)[C@H](CCC(N)=O)NC(=O)[C@H](C)NC(=O)[C@H](CCCCNC(=O)COCCOCCNC(=O)COCCOCCNC(=O)CC[C@H](NC(=O)CCCCCCCCCCCCCCCCCCC(=O)O)C(=O)O)NC(=O)[C@H](CCCCN)NC(=O)[C@H](CC(=O)O)NC(=O)[C@H](CC(C)C)NC(=O)C(C)(CC(C)C)NC(=O)[C@@H](NC(=O)[C@H](CO)NC(=O)[C@H](Cc1ccc(O)cc1)NC(=O)[C@H](CC(=O)O)NC(=O)[C@H](CO)NC(=O)[C@@H](NC(=O)C(C)(Cc1ccccc1)NC(=O)[C@@H](NC(=O)CNC(=O)[C@H](CCC(N)=O)NC(=O)C(C)(C)NC(=O)[C@@H](N)Cc1ccc(O)cc1)[C@@H](C)O)[C@@H](C)O)[C@@H](C)CC)C(=O)N[C@@H](CCC(=O)O)C(=O)N[C@@H](Cc1ccc(O)cc1)C(=O)N[C@@H](CC(C)C)C(=O)N[C@@H](CC(C)C)C(=O)N[C@@H](CCC(=O)O)C(=O)NCC(=O)NCC(=O)N1CCC[C@H]1C(=O)N[C@@H](CO)C(=O)N[C@@H](CO)C(=O)NCC(=O)N[C@@H](C)C(=O)N1CCC[C@H]1C(=O)N1CCC[C@H]1C(=O)N1CCC[C@H]1C(=O)N[C@@H](CO)C(N)=O` (stereo partly drawn) [Compound 9], for which the EC50 at GCG-R stood at 0.186 nM; at GIPR it was 0.0285 nM; on GLP-1R it was 0.0612 nM.

On to `CC[C@H](C)[C@H](NC(=O)[C@H](Cc1ccccc1)NC(=O)[C@H](C)NC(=O)C(C)(C)NC(=O)[C@H](CCC(N)=O)NC(=O)[C@H](C)NC(=O)[C@H](CCCCNC(=O)COCCOCCNC(=O)CC[C@H](NC(=O)CCCCCCCCCCCCCCCCCCC(=O)O)C(=O)O)NC(=O)[C@H](CCCCN)NC(=O)[C@H](CC(=O)O)NC(=O)[C@H](CC(C)C)NC(=O)C(C)(CC(C)C)NC(=O)[C@@H](NC(=O)[C@H](CO)NC(=O)[C@H](Cc1ccc(O)cc1)NC(=O)[C@H](CC(=O)O)NC(=O)[C@H](CO)NC(=O)[C@@H](NC(=O)C(C)(Cc1ccccc1F)NC(=O)[C@@H](NC(=O)CNC(=O)[C@H](CCC(N)=O)NC(=O)C(C)(C)NC(=O)[C@@H](N)Cc1ccc(O)cc1)[C@@H](C)O)[C@@H](C)O)[C@@H](C)CC)C(=O)N[C@@H](CCC(=O)O)C(=O)N[C@@H](Cc1ccc(O)cc1)C(=O)N[C@@H](CC(C)C)C(=O)N[C@@H](CC(C)C)C(=O)N[C@@H](CCC(=O)O)C(=O)NCC(=O)NCC(=O)N1CCC[C@H]1C(=O)N[C@@H](CO)C(=O)N[C@@H](CO)C(=O)NCC(=O)N[C@@H](C)C(=O)N1CCC[C@H]1C(=O)N1CCC[C@H]1C(=O)N1CCC[C@H]1C(=O)N[C@@H](CO)C(N)=O` (stereo partly drawn) [Compound 5], for which the EC50 stood at 0.138 nM on GCG-R, 0.0205 nM at GIPR and 0.0454 nM at GLP-1R.

In the case of `CC[C@H](C)[C@H](NC(=O)[C@H](Cc1ccccc1)NC(=O)[C@H](C)NC(=O)C(C)(C)NC(=O)[C@H](CCC(N)=O)NC(=O)[C@H](C)NC(=O)[C@H](CCCCNC(=O)COCCOCCNC(=O)CC[C@H](NC(=O)CCCCCCCCCCCCCCCCCCC(=O)O)C(=O)O)NC(=O)[C@H](CCCCN)NC(=O)[C@H](CC(=O)O)NC(=O)[C@H](CC(C)C)NC(=O)[C@](C)(CC(C)C)NC(=O)[C@@H](NC(=O)[C@H](CO)NC(=O)[C@H](Cc1ccc(O)cc1)NC(=O)[C@H](CC(=O)O)NC(=O)[C@H](CO)NC(=O)[C@@H](NC(=O)[C@H](Cc1ccccc1)NC(=O)[C@@H](NC(=O)CNC(=O)[C@H](CCC(N)=O)NC(=O)C(C)(C)NC(=O)[C@@H](N)Cc1ccc(O)cc1)[C@@H](C)O)[C@@H](C)O)[C@@H](C)CC)C(=O)N[C@@H](CCC(=O)O)C(=O)N[C@@H](Cc1ccc(O)cc1)C(=O)N[C@@H](CC(C)C)C(=O)N[C@@H](CC(C)C)C(=O)N[C@@H](CCC(=O)O)C(=O)NCC(=O)NCC(=O)N1CCC[C@H]1C(=O)N[C@@H](CO)C(=O)N[C@@H](CO)C(=O)NCC(=O)N[C@@H](C)C(=O)N1CCC[C@H]1C(=O)N1CCC[C@H]1C(=O)N1CCC[C@H]1C(=O)N[C@@H](CO)C(N)=O` [retatrutide, Retatrutide, reference compound], the values for the EC50 on GCG-R, at GIPR and at GLP-1R were 0.523 nM, 0.0342 nM and 0.046 nM, respectively.

Take `CC[C@H](C)[C@H](NC(=O)[C@H](Cc1ccccc1)NC(=O)[C@H](C)NC(=O)C(C)(C)NC(=O)[C@H](CCC(N)=O)NC(=O)[C@H](C)NC(=O)[C@H](CCCCNC(=O)COCCOCCNC(=O)COCCOCCNC(=O)CC[C@H](NC(=O)CCCCCCCCCCCCCCCCCCC(=O)O)C(=O)O)NC(=O)[C@H](CCCCN)NC(=O)[C@H](CC(=O)O)NC(=O)[C@H](CC(C)C)NC(=O)C(C)(CC(C)C)NC(=O)[C@@H](NC(=O)[C@H](CO)NC(=O)[C@H](Cc1ccc(O)cc1)NC(=O)[C@H](CC(=O)O)NC(=O)[C@H](CO)NC(=O)[C@@H](NC(=O)C(C)(Cc1ccccc1F)NC(=O)[C@@H](NC(=O)CNC(=O)[C@H](CCC(N)=O)NC(=O)C(C)(C)NC(=O)[C@@H](N)Cc1ccc(O)cc1)[C@@H](C)O)[C@@H](C)O)[C@@H](C)CC)C(=O)N[C@@H](CCC(=O)O)C(=O)N[C@@H](Cc1ccc(O)cc1)C(=O)N[C@@H](CC(C)C)C(=O)N[C@@H](CC(C)C)C(=O)N[C@@H](CCC(=O)O)C(=O)NCC(=O)NCC(=O)N1CCC[C@H]1C(=O)N[C@@H](CO)C(=O)N[C@@H](CO)C(=O)NCC(=O)N[C@@H](C)C(=O)N1CCC[C@H]1C(=O)N1CCC[C@H]1C(=O)N1CCC[C@H]1C(=O)N[C@@H](CO)C(N)=O` (stereo partly drawn) [Compound 11]: the EC50 came to 0.166 nM on GCG-R, 0.027 nM on GIPR and 0.0536 nM on GLP-1R.
